Measured values taken from paper PMC9225722, “Synthesis and biological evaluation of thieno[3,2-c]pyrazol-3-amine derivatives as potent glycogen synthase kinase 3β inhibitors for Alzheimer’s disease” (Journal of Enzyme Inhibition and Medicinal Chemistry, 2022).
Entries after “also recorded” stand apart in the source; their conditions may differ.

Key:
[1] = tested on: panel of 21 diverse kinases; assay: Kinase selectivity screen, whole panel; assay type: biochemical, human; conditions: 1.0 μM compound, Km ATP, 21 kinases
From the text: (§1) The potent GSK-3β inhibitor 16b was next subjected to kinase selectivity assay. A panel of kinases which were structurally related to GSK-3β was used for the GSK-3β selectivity studies[26]^,[37]^,[38]. […] GSK-3α and GSK-3β are known to share a 98% sequence homology at the catalytic site[42]. CDK5 and GSK-3 belong to the CMGC protein kinase family, which shared highly homology with each other[43]^,[44]. CDK5 is known abnormally activated and also responsible for the tau hyperphosphorylation in AD[45]. It was known that Aβ could increase CK2 activity, which in turn accelerated the tau phosphorylation in AD[46]. Therefore, the inhibition of CDK5 and CK2 by 16b may be beneficial for its anti-AD activities.
Figure 3. Effects of compound 16b on the activities of 21 protein kinases in vitro. Protein kinases were of human origin and assayed in the presence of 1.0 μM compound 16b or vehicle (DMSO). The enzymatic activity was measured in the presence of Km ATP. Kinase activities were given as the mean of twice determinations. […]
(§2) Compound 16b was evaluated for kinase selectivity at Eurofins Cerep SA (Celle-L’Evescault, France) in enzymatic radioactive assays in a panel of 21 different kinases (including GSK-3β) from diverse families. […] The enzymatic activity was measured in the presence of Km ATP.

[2] = tested on: phosphorylation of GSK-3β at Ser9; assay: Western blot of p-GSK-3β (Ser9) in SH-SY5Y cells; assay type: cell-based, human; conditions: 2.5 h, control 0.33
From the text: GSK-3β is activated by phosphorylation at Tyr216 and is inhibited by phosphorylation at Ser9 [48]. As one of the substrates of Akt (protein kinase B), GSK-3 can inhibit Akt[49]. The inhibition of GSK-3β increases the p-Akt expression and activates the PI3K/Akt pathway, and that, in turn, phosphorylates the GSK-3β at the Ser9 site[50]^,[51]. […] As shown in Figure 6(A), LiCl greatly promoted GSK-3β phosphorylation at Ser9 (p-GSK-3β/GAPDH: 0.60 vs 0.33). […] Therefore, in cellular level, compound 16b was confirmed to have a direct effect on GSK-3β.
(§3) Figure 6. (A) The effect of 16b on phosphorylation of GSK-3β at Ser9; (B) the effect of 16b on β-catenin abundance. Protein expressions were detected by immunoblot analysis with a specific antibody. Values are reported as the mean ± SD of three independent experiments. *p < 0.05, **p < 0.01, ***p < 0.001 vs control.
SH-SY5Y cells (1 × 10^6) were seeded in 12-well plates (Corning, Los Altos, MA, USA) and incubated with compound 16b or LiCl at the indicated concentrations for 2.5 h at 37 °C in 5% CO2. At the end of incubation, cells were lysed by addition of ice-cold RIPA buffer containing a protease inhibitor cocktail. The protein quantification was determined using a BCA protein assay kit (Jiangsu KeyGEN BioTECH Co., Ltd., Nanjing, China). Cellular lysates were mixed with an equal volume of SDS (sodium dodecyl sulfate) loading buffer (Jiangsu KeyGEN BioTECH Co., Ltd., Nanjing, China) and separated by electrophoresis (Bio-rad Power Supplies Basic, Shanghai, China) in polyacrylamide gel. Proteins were transferred from acrylamide gels to nitrocellulose membranes and blocked in a blocking buffer (PBS, 5% non-fat milk) for 1.5 to 2 h at 20 °C. […] The blots were washed by TBST for 20 min and detected with ECL chemiluminescent reagent (Jiangsu KeyGEN BioTECH Co., Ltd., Nanjing, China) for 3 min. Pixel intensity was quantitated using gel imaging system (SYNGENE G:BOX/iChemi XR5, ISS, San Diego, CA, US) and Gel-Pro32 software (Media Cybernetics, Bethesda, MD, USA). […]

[3] = target: T1, CK2 (Homo sapiens, UniProt P68400); assay: Kinase selectivity screen (enzymatic radioactive assay, Eurofins Cerep); assay type: biochemical; conditions: 1.0 μM compound, Km ATP
T1 construct: purchased Eurofins Cerep SA (contract assay service)
T1 sequence (P68400 whole entry): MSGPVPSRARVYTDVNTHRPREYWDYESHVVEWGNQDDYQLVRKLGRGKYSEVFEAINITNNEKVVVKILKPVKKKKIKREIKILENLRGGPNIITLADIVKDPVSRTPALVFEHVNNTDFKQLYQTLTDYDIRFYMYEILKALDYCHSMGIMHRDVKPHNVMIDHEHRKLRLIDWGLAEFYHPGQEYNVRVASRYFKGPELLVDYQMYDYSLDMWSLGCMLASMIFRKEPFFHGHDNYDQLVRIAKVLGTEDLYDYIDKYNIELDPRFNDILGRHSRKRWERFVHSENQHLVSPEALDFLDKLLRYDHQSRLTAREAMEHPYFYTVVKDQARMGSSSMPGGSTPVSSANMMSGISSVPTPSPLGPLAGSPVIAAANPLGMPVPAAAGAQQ
From the text: as §1
(§4) Figure 3. Effects of compound 16b on the activities of 21 protein kinases in vitro. Protein kinases were of human origin and assayed in the presence of 1.0 μM compound 16b or vehicle (DMSO). The enzymatic activity was measured in the presence of Km ATP. Kinase activities were given as the mean of twice determinations. AMPKα1, AMP-activated protein kinase 1; AMPKα2, AMP-activated protein kinase 2; CDK4/cyclinD3, cyclin-dependent protein kinase-4/cyclinD3; CDK5/p35, cyclin-dependent protein kinase-5/p35; CHK1, checkpoint kinase-1; CK2, casein kinase-2; Lck, lymphocyte kinase; MSK1, mitogen- and stress-activated protein kinase-1; p70S6K, p70 ribosomal protein S6 kinase; PDK1, 3-phosphoinositide-dependent protein kinase-1; PKA, cAMP-dependent protein kinase; PKBα, protein kinase Bα; PKCα, protein kinase Cα; PRAK, p38-regulated/activated kinase; SAPK2a, stress-activated protein kinase-2a; SAPK2b, stress-activated protein kinase-2b; SAPK3, stress-activated protein kinase-3; SAPK4, stress-activated protein kinase-4; SGK, serum- and glucocorticoid-induced protein kinase.
as §2

[4] = target: T2, GSK-3α (Homo sapiens, UniProt P49840); assay: as above; assay type: biochemical; conditions: 1.0 μM compound, Km ATP
T2 construct: purchased Eurofins Cerep SA (contract assay service)
T2 sequence (P49840 whole entry): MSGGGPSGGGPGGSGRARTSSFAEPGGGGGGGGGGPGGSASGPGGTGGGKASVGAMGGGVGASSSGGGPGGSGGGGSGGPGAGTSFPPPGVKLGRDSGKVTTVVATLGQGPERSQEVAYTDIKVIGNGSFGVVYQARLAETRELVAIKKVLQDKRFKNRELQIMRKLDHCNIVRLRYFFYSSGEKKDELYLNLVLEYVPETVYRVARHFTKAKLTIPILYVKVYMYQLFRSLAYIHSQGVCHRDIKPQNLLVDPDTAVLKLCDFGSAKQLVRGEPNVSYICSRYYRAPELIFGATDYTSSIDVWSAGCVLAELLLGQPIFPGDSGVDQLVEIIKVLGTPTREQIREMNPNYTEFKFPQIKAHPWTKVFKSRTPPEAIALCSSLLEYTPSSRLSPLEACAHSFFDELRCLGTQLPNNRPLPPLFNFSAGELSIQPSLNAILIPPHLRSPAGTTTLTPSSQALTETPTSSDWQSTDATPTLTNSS
From the text: as §1, §4, §2

[5] = tested on: β-catenin; assay: Western blot of β-catenin abundance in SH-SY5Y cells; assay type: cell-based, human; conditions: 2.5 h, control 0.41
From the text: as §3
GSK-3β is implicated in the Wnt/β-catenin signalling pathway, which plays an important role in neuronal development. GSK-3β, together with adenomatous polyposis coli (APC), Axin, and casein kinase 1 (CK1), form a ploy-protein complex that regulates the hyperphosphorylation of β-catenin. Phospho-β-catenin is recognised by ubiquitin and degraded by proteasomes. Pharmacological inhibition of GSK-3β leads to the activation and stabilisation of β-catenin, subsequently resulting in the accumulation of β-catenin in cytoplasm. The activation of Wnt/β-catenin signalling pathway can promote synaptic growth, alleviate spatial memory impairment and neurodegeneration in Alzheimer’s models. Moreover, β-catenin also plays a pivotal role in cell adhesion complexes. The combination of β-catenin and N-cadherin elevates cell-to-cell interactions which is prerequisite for neuronal differentiation[61]^,[62]. Therefore, we further evaluated the effect of 16b on β-catenin. In agreement with its GSK-3β inhibitory activity on SH-SY5Y cells, 16b increased β-catenin abundance in a dose-dependent manner. […]
SH-SY5Y cells (1 × 10^6) were seeded in 12-well plates (Corning, Los Altos, MA, USA) and incubated with compound 16b or LiCl at the indicated concentrations for 2.5 h at 37 °C in 5% CO2. […] The protein quantification was determined using a BCA protein assay kit (Jiangsu KeyGEN BioTECH Co., Ltd., Nanjing, China). […] The blots were washed by TBST for 20 min and detected with ECL chemiluminescent reagent (Jiangsu KeyGEN BioTECH Co., Ltd., Nanjing, China) for 3 min. Pixel intensity was quantitated using gel imaging system (SYNGENE G:BOX/iChemi XR5, ISS, San Diego, CA, US) and Gel-Pro32 software (Media Cybernetics, Bethesda, MD, USA). […]

selectivity over CK2 [3]: moderate selectivity
selectivity over GSK-3α [4]: low selectivity
Compound: CC(C)C(=O)Nc1n[nH]c2cc(-c3cccnc3)sc12 [Compound 16b, N-(5-(pyridin-3-yl)-1H-thieno[3,2-c]pyrazol-3-yl)isobutyramide]
kinase selectivity over most of the kinases of the panel [1]: good selectivity; also recorded: accepted kinase selectivity
p-GSK-3β/GAPDH ratio (Ser9) ([2]; 10 μM): 0.41
p-GSK-3β/GAPDH ratio (Ser9) ([2]; 20 μM): 0.50
β-catenin/GADPH ratio ([5]; 5 μM): 0.54
β-catenin/GADPH ratio ([5]; 10 μM): 0.64
β-catenin/GADPH ratio ([5]; 20 μM): 0.76
